Laboratory results from patent US9493506B2 (Enanta Pharmaceuticals, Inc., priority 2010, dated 2016).

How the values were obtained:
Assay type in all cases: cell-based, hepatitis C virus (genotype 1a-H77)
[1] = test system: HCV replicon with a R155K mutation in a 1a-H77 background; experiment: transient replicon assay, R155K mutation in 1a-H77 background; details: Hepatitis C virus, read-out: EC50 in a transient replicon assay with a R155K mutation in a 1a-H77 background
Protocol: (§1) Replicon cell lines can be maintained in Dulbecco's modified Eagles medium (DMEM) containing 100 IU/ml penicillin, […] streptomycin (Invitrogen), […] G418 (Invitrogen) and 10% (v/v) fetal bovine serum (FBS). Replicon-containing cells can be seeded into 96 well plates at a density of 5000 cells per well in 100 μl DMEM containing 5% FBS. The next day, the compound can be initially diluted in dimethyl sulfoxide (DMSO) to generate a 200× stock of the inhibitor in a series of 8 half-log dilutions. The dilution series can then be diluted 100-fold in the medium containing 5% FBS. One hundred microliters of medium with the inhibitor can be added to each well of the overnight cell culture plate already containing 100 μl of DMEM with 5% FBS. In assays where the protein binding effect on inhibitor potency is assessed, the medium from the overnight cell culture plates can be replaced with 200 μl DMEM containing 40% human plasma (Innovative Research) plus 5% FBS as well as compound. The cells can be grown for 4 days in tissue culture incubators. The inhibitory effects of compounds against the replicons can be determined by measuring either the level of luciferase or HCV RNA. The luciferase assay can be conducted using a Luciferase Assay System kit (Promega) following the manufacturer's instructions. Briefly, the cell culture medium is removed and wells are washed with 200 μl of phosphate-buffered saline. To each well Passive Lysis buffer (Promega, Wis.) is added and the plates are incubated for 30 min with rocking to lyse the cells. Luciferin solution (50 μl, Promega) is added, and luciferase activity is measured with a Victor II luminometer (Perkin-Elmer). To determine HCV RNA levels, RNA extractions can be performed using the CellsDirect kit (Invitrogen), and the HCV RNA copy number can be measured using the SuperScript III Platinum One-Step qRT-PCR system (Invitrogen) and primers specific to the HCV 5′ nontranslated region. Cytotoxicity can be determined by the 3-[4,5-dimethylhiazol-2-yl]-2,5-diphenyltetrazolium bromide (MTT) colorimetric assay as follows. Replicon cells is plated in 96-well plates (4000 cells per well), the next day compound dilutions are added as in the activity assay, and the cells are grown in the presence of the inhibitors for 4 days. The MTT solution is diluted in DMEM containing 5% FBS and 60 μl of the solution is added to the cells. After 4 hrs, the cells are solubilized by the addition of 30 […]μl SDS (20% in 0.02 N HCl). The plates are incubated overnight and the optical density can be measured at 570 nm. To determine compounds' EC50 and TD50, luciferase, RNA inhibition and MTT data can be analyzed using the GraphPad Prism 4 software (equation: sigmoidal dose-response—variable slope).
(§2) The 1a-H77 replicon for transient assays further differs from the replicon in the stable cell line in that it contains NS2 through NS5B in the second cistron. The 1b-N strain replicon contains NS3 through NS5B in the second cistron, with adaptive mutations E1202G in NS3 and S2204I in NS5A. Mutagenesis can be performed using the Stratagene QuikChange XL II site-directed mutagenesis kit. Mutants' sequences can be confirmed, plasmids can be linearized with Xba I restriction enzyme and used as template for in vitro transcription reactions to make mutant replicon RNA for transient transfections. In vitro transcription can be performed with the T7 Megascript kit (Ambion).
(§3) Transient replicon transfections can be performed essentially as described by Mo et al. (Antimicrob Agents Chemother (2005) 49(10):4305-4314) with slight modifications. Fifteen micrograms of template RNA can be used to electroporate 3×10^6 cells in a 200 μl volume in a 0.2 cm cuvette. The cells used for transient transfections can be Huh7 cells obtained by curing replicon-containing cells with IFN (Mo et al., supra). Electroporation can be done with a Gene Pulser II (Bio-Rad, CA) at 480V and 25 μF, using two manual pulses. […]

[2] = test system: HCV replicon with a D168V mutation in a 1a-H77 background; experiment: transient replicon assay, D168V mutation in 1a-H77 background; details: Hepatitis C virus, read-out: EC50 in a transient replicon assay with a D168V mutation in a 1a-H77 background
Protocol: as §1, §2, §3

[3] = test system: HCV replicon with a D168E mutation in a 1a-H77 background; experiment: transient replicon assay, D168E mutation in 1a-H77 background; details: Hepatitis C virus, read-out: EC50 in a transient replicon assay with a D168E mutation in a 1a-H77 background
Protocol: as §1, §2, §3

Row | SMILES | EC50 [1] [nM] | EC50 [2] [nM] | EC50 [3] [nM]
1 | Cc1nc2c(Br)cc(F)cc2nc1O[C@@H]1C[C@H]2C(=O)N[C@]3(C(=O)NS(=O)(=O)C4(C)CC4)C[C@H]3/C=C\CCCCC[C@H](NC(=O)c3ccon3)C(=O)N2C1 [Example 100, N-((2R,6S,13aS,14aR,16aS,Z)-2-(5-bromo-7-fluoro-3-methylquinoxalin-2-yloxy)-14a-(1-methylcyclopropylsulfonylcarbamoyl)-5,16-dioxo-1,2,3,5,6,7,8,9,10,11,13a,14,14a,15,16,16a-hexadecahydrocyclopropa[e]pyrrolo[1,2-a][1,4]diazacyclopentadecin-6-yl)isoxazole-3-carboxamide] | < 1 | < 25 | 3 to 20
2 | CCc1nc2cccc(F)c2nc1O[C@@H]1C[C@H]2C(=O)N[C@]3(C(=O)NS(=O)(=O)C4CC4)C[C@H]3/C=C\CCCCC[C@H](NC(=O)c3noc(C)c3C)C(=O)N2C1 [Example 163, N-((2R,6S,13aS,14aR,16aS,Z)-14a-(cyclopropylsulfonylcarbamoyl)-2-(3-ethyl-8-fluoroquinoxalin-2-yloxy)-5,16-dioxo-1,2,3,5,6,7,8,9,10,11,13a,14,14a,15,16,16a-hexadecahydrocyclopropa[e]pyrrolo[1,2-a][1,4]diazacyclopentadecin-6-yl)-4,5-dimethylisoxazole isoxazole-3-carboxamide] | < 1 | 25 to 50 | < 3
3 | Cn1ccc(C(=O)N[C@H]2CCCCC/C=C\[C@@H]3C[C@@]3(C(=O)NS(=O)(=O)C3CC3)NC(=O)[C@@H]3C[C@@H](Oc4nc5ccccc5nc4C(F)(F)F)CN3C2=O)n1 [Example 12] | 10 to 25 | 250 to 1000 | 50 to 100
4 | CC(F)(F)c1nc2ccccc2nc1O[C@@H]1C[C@H]2C(=O)N[C@]3(C(=O)NS(=O)(=O)C4(C)CC4)C[C@H]3/C=C\CCCCC[C@H](NC(=O)c3ccon3)C(=O)N2C1 [Example 5, N-((2R,6S,13aS,14aR,16aS,Z)-2-(3-(1,1-difluoroethyl)quinoxalin-2-yloxy)-14a-(1-methylcyclopropylsulfonylcarbamoyl)-5,16-dioxo-1,2,3,5,6,7,8,9,10,11,13a,14,14a,15,16,16a-hexadecahydrocyclopropa[e]pyrrolo[1,2-a][1,4]diazacyclopentadecin-6-yl)isoxazole-3-carboxamide] | < 1 | < 25 | < 3
5 | CC(C)[C@@H](C(=O)N[C@H]1CCCCC/C=C\[C@@H]2C[C@@]2(C(=O)NS(=O)(=O)C2CC2)NC(=O)[C@@H]2C[C@@H](Oc3nc4ccccc4nc3C(F)(F)F)CN2C1=O)N1CCCNC1=O [Example 19, (2R,6S,13aS,14aR,16aS,Z)—N-(cyclopropylsulfonyl)-6-((S)-3-methyl-2-(2-oxotetrahydropyrimidin-1(2H)-yl)butanamido)-5,16-dioxo-2-(3-(trifluoromethyl)quinoxalin-2-yloxy)-1,2,3,5,6,7,8,9,10,11,13a,14,14a,15,16,16a-hexadecahydrocyclopropa[e]pyrrolo[1,2-a][1,4]diazacyclopentadecine-14a-carboxamide] | > 50 | > 1000 | > 100
6 | CC(C)(C)OC(=O)N[C@H]1CCCCC/C=C\[C@@H]2C[C@@]2(C(=O)NS(=O)(=O)C2CC2)NC(=O)[C@@H]2C[C@@H](Oc3nc4cc(F)ccc4nc3C(F)(F)F)CN2C1=O [Example 106, tert-butyl (2R,6S,13aS,14aR,16aS,Z)-14a-(cyclopropylsulfonylcarbamoyl)-2-(7-fluoro-3-(trifluoromethyl)quinoxalin-2-yloxy)-5,16-dioxo-1,2,3,5,6,7,8,9,10,11,13a,14,14a,15,16,16a-hexadecahydrocyclopropa[e]pyrrolo[1,2-a][1,4]diazacyclopentadecin-6-ylcarbamate] | < 1 | 50 to 250 | 3 to 20
7 | Cc1nc2c(Br)cc(F)cc2nc1O[C@@H]1C[C@H]2C(=O)N[C@]3(C(=O)NS(=O)(=O)C4(C)CC4)C[C@H]3/C=C\CCCCC[C@H](NC(=O)c3noc(C)c3C)C(=O)N2C1 [Example 102, N-((2R,6S,13aS,14aR,16aS,Z)-2-(5-bromo-7-fluoro-3-methylquinoxalin-2-yloxy)-14a-(1-methylcyclopropylsulfonylcarbamoyl)-5,16-dioxo-1,2,3,5,6,7,8,9,10,11,13a,14,14a,15,16,16a-hexadecahydrocyclopropa[e]pyrrolo[1,2-a][1,4]diazacyclopentadecin-6-yl)-4,5-dimethylisoxazole-3-carboxamide] | < 1 | < 25 | 3 to 20
8 | CCc1nc2ccc(F)cc2nc1O[C@@H]1C[C@H]2C(=O)N[C@]3(C(=O)NS(=O)(=O)C4CC4)C[C@H]3/C=C\CCCCC[C@H](NC(=O)c3noc(C)c3C)C(=O)N2C1 [Example 123, N-((2R,6S,13aS,14aR,16aS,Z)-14a-(cyclopropylsulfonylcarbamoyl)-2-(3-ethyl-7-fluoroquinoxalin-2-yloxy)-5,16-dioxo-1,2,3,5,6,7,8,9,10,11,13a,14,14a,15,16,16a-hexadecahydrocyclopropa[e]pyrrolo[1,2-a][1,4]diazacyclopentadecin-6-yl)-4,5-dimethylisoxazole-3-carboxamide] | 1 to 10 | 50 to 250 | 3 to 20
9 | CC(C)(C)OC(=O)N[C@H]1CCCCC/C=C\[C@@H]2C[C@@]2(C(=O)NS(=O)(=O)C2CC2)NC(=O)[C@@H]2C[C@@H](Oc3nc4ccccc4nc3C(C)(F)F)CN2C1=O [Example 1, tert-butyl (2R,6S,13aS,14aR,16aS,Z)-14a-(cyclopropylsulfonylcarbamoyl)-2-(3-(1,1-difluoroethyl)quinoxalin-2-yloxy)-5,16-dioxo-1,2,3,5,6,7,8,9,10,11,13a,14,14a,15,16,16a-hexadecahydrocyclopropa[e]pyrrolo[1,2-a][1,4]diazacyclopentadecin-6-ylcarbamate] | < 1 | 50 to 250 | 3 to 20
10 | Cc1nc2ccc(F)cc2nc1O[C@@H]1C[C@H]2C(=O)N[C@]3(C(=O)NS(=O)(=O)C4CC4)C[C@H]3/C=C\CCCCC[C@H](NC(=O)OC(C)(C)C)C(=O)N2C1 [Example 20, tert-butyl (2R,6S,13aS,14aR,16aS,Z)-14a-(cyclopropylsulfonylcarbamoyl)-2-(7-fluoro-3-methylquinoxalin-2-yloxy)-5,16-dioxo-1,2,3,5,6,7,8,9,10,11,13a,14,14a,15,16,16a-hexadecahydrocyclopropa[e]pyrrolo[1,2-a][1,4]diazacyclopentadecin-6-ylcarbamate] | < 1 | 25 to 50 | 3 to 20
11 | Cc1ccsc1C(=O)N[C@H]1CCCCC/C=C\[C@@H]2C[C@@]2(C(=O)NS(=O)(=O)C2CC2)NC(=O)[C@@H]2C[C@@H](Oc3nc4ccccc4nc3C(F)(F)F)CN2C1=O [Example 14] | < 1 | 25 to 50 | 3 to 20
